Laboratory results published in patent US20260191968A1, “PROTAC DEGRADERS OF MLLT1 AND/OR MLLT3” (DARK BLUE THERAPEUTICS LTD, priority 2024, published 2026).

Target: T1, MLLT1 (Homo sapiens, UniProt Q03111)
T1 construct: host or cells: MV4-11
T1 sequence (Q03111 1-559): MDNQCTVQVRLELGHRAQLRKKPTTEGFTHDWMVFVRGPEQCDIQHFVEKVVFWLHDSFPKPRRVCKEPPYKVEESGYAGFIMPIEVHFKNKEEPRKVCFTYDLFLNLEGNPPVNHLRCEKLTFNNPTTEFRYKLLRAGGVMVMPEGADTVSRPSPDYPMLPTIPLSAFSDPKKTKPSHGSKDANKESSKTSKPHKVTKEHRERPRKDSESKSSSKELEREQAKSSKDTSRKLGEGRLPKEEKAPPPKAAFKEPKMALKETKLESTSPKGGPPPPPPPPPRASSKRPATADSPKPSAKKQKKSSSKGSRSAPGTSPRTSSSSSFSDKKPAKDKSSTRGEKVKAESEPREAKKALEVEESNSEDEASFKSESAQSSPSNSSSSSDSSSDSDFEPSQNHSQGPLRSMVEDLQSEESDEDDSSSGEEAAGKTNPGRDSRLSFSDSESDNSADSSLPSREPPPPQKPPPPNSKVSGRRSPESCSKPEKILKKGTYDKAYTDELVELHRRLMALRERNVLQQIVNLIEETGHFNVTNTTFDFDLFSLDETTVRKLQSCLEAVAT
Experiment: MLLT1 degradation assay in MV4-11 cells (JESS chemiluminescent detection), three concentrations, 24 h
Assay type: cell-based
Conditions: with respect to DMSO control
Experimental: MLLT1 degradation efficacy of compounds were tested in an automated chemiluminescent detection system (JESS, Cat #004-650). […] 10 mM DMSO stocks were prepared, and cells were treated with three concentrations of test compounds viz. 1000, 100 and 10 nM at a final DMSO concentration of 0.1% and incubated for 24 h at 37° C., 5% CO2. […] Post run, data were analysed using “Compass for SW” software for chemiluminescent detection. The peak area for each band was used for the calculation of MLLT1 degradation with respect to DMSO control. Data is shown as “MLLT1% degradation”.

| MLLT1% Degradation @ 0.1 μM | Compound | MLLT1% Degradation @ 0.01 μM | MLLT1% Degradation @ 1 μM |
| --- | --- | --- | --- |
| A (Category A: A ≥ 75% degradation) | CN1CCC[C@@H]1c1[nH]c2cc(NC(=O)c3ccc(CCCCC#Cc4cccc5c4CN(C4CCC(=O)NC4=O)C5=O)nc3)ncc2c1Cl (stereo partly drawn) [Example 71, N-(3-chloro-2-((R)-1-methylpyrrolidin-2-yl)-1H-pyrrolo[3,2-c]pyridin-6-yl)-6-(6-(2-(2,6-dioxopiperidin-3-yl)-1-oxoisoindolin-4-yl)hex-5-yn-1-yl) nicotinamide] | A (Category A: A ≥ 75% degradation) | B (Category B: 50% ≤ B < 75% degradation) |
| A (Category A: A ≥ 75% degradation) | CN1CCC[C@@H]1c1[nH]c2cc(NC(=O)c3ccc(N4CCN(CC#Cc5cccc6c5CN(C5CCC(=O)NC5=O)C6=O)CC4)nc3)ncc2c1Cl (stereo partly drawn) [Example 72, N-(3-chloro-2-((R)-1-methylpyrrolidin-2-yl)-1H-pyrrolo[3,2-c]pyridin-6-yl)-6-(4-(3-(2-(2,6-dioxopiperidin-3-yl)-1-oxoisoindolin-4-yl)prop-2-yn-1-yl)piperazin-1-yl)nicotinamide] | A (Category A: A ≥ 75% degradation) | C (Category C: 25% ≤ C < 50% degradation) |
| A (Category A: A ≥ 75% degradation) | CCN1CCC[C@@H]1c1cc2cnc(NC(=O)c3ccc(N4CCC(CC#Cc5cccc6c5CN(C5CCC(=O)NC5=O)C6=O)CC4)nc3)cc2[nH]1 (stereo partly drawn) [Example 73, 6-(4-(3-(2-(2,6-dioxopiperidin-3-yl)-1-oxoisoindolin-4-yl)prop-2-yn-1-yl)piperidin-1-yl)-N-(2-((R)-1-ethylpyrrolidin-2-yl)-1H-pyrrolo[3,2-c]pyridin-6-yl)nicotinamide] | B (Category B: 50% ≤ B < 75% degradation) | B (Category B: 50% ≤ B < 75% degradation) |
| A (Category A: A ≥ 75% degradation) | CN1CCC[C@@H]1c1cc2cnc(NC(=O)c3cc(F)c(CCCC#Cc4cccc5c4CN(C4CCC(=O)NC4=O)C5=O)c(F)c3)cc2[nH]1 (stereo partly drawn) [Example 84, 4-(5-(2-(2,6-dioxopiperidin-3-yl)-1-oxoisoindolin-4-yl)pent-4-yn-1-yl)-3,5-difluoro-N-(2-((R)-1-methylpyrrolidin-2-yl)-1H-pyrrolo[3,2-c]pyridin-6-yl)benzamide] | B (Category B: 50% ≤ B < 75% degradation) | A (Category A: A ≥ 75% degradation) |
| A (Category A: A ≥ 75% degradation) | CN1CCC[C@@H]1c1cc2cnc(NC(=O)c3ccc(CCCC#Cc4cc5c(cc4F)C(=O)N(C4CCC(=O)NC4=O)C5)cc3)cc2[nH]1 (stereo partly drawn) [Example 106, 4-(5-(2-(2,6-dioxopiperidin-3-yl)-6-fluoro-1-oxoisoindolin-5-yl)pent-4-yn-1-yl)-N-(2-((R)-1-methylpyrrolidin-2-yl)-1H-pyrrolo[3,2-c]pyridin-6-yl)benzamide] | B (Category B: 50% ≤ B < 75% degradation) | A (Category A: A ≥ 75% degradation) |
| A (Category A: A ≥ 75% degradation) | CN1CCC[C@@H]1c1cc2cnc(NC(=O)c3ccc(CCCC#Cc4cccc5c4C(=O)N(C4CCC(=O)NC4=O)C5=O)cc3)cc2[nH]1 (stereo partly drawn) [Example 110, 4-(5-(2-(2,6-dioxopiperidin-3-yl)-1,3-dioxoisoindolin-4-yl)pent-4-yn-1-yl)-N-(2-((R)-1-methylpyrrolidin-2-yl)-1H-pyrrolo[3,2-c]pyridin-6-yl)benzamide] | C (Category C: 25% ≤ C < 50% degradation) | A (Category A: A ≥ 75% degradation) |
| A (Category A: A ≥ 75% degradation) | CN1CCC[C@@H]1c1cc2cnc(NC(=O)c3ccc(CCCC4CCN(c5cccc6c5C(=O)N(C5CCC(=O)NC5=O)C6=O)CC4)cc3)cc2[nH]1 (stereo partly drawn) [Example 128, 4-(3-(1-(2-(2,6-dioxopiperidin-3-yl)-1,3-dioxoisoindolin-4-yl)piperidin-4-yl)propyl)-N-(2-((R)-1-methylpyrrolidin-2-yl)-1H-pyrrolo[3,2-c]pyridin-6-yl)benzamide] | C (Category C: 25% ≤ C < 50% degradation) | A (Category A: A ≥ 75% degradation) |
| A (Category A: A ≥ 75% degradation) | CN1CCC[C@@H]1c1cc2cnc(NC(=O)c3ccc(CCCN4CCN(c5cccc6c5C(=O)N(C5CCC(=O)NC5=O)C6=O)CC4)cc3)cc2[nH]1 (stereo partly drawn) [Example 130, 4-(3-(4-(2-(2,6-dioxopiperidin-3-yl)-1,3-dioxoisoindolin-4-yl)piperazin-1-yl)propyl)-N-(2-((R)-1-methylpyrrolidin-2-yl)-1H-pyrrolo[3,2-c]pyridin-6-yl)benzamide] | B (Category B: 50% ≤ B < 75% degradation) | A (Category A: A ≥ 75% degradation) |

| Compound | MLLT1% Degradation @ 0.1 μM | MLLT1% Degradation @ 0.01 μM | MLLT1% Degradation @ 1 μM |
| --- | --- | --- | --- |
| CCN1CCC[C@@H]1c1cc2cnc(NC(=O)c3ccc(CCCCC#Cc4cccc5c4CN(C4CCC(=O)NC4=O)C5=O)nc3)cc2[nH]1 (stereo partly drawn) [Example 74, 6-(6-(2-(2,6-dioxopiperidin-3-yl)-1-oxoisoindolin-4-yl)hex-5-yn-1-yl)-N-(2-((R)-1-ethylpyrrolidin-2-yl)-1H-pyrrolo[3,2-c]pyridin-6-yl) nicotinamide] | B (Category B: 50% ≤ B < 75% degradation) | B (Category B: 50% ≤ B < 75% degradation) | B (Category B: 50% ≤ B < 75% degradation) |
| CN1CCC[C@@H]1c1cc2cnc(NC(=O)c3ccc(N4CCC(CN5CCN(c6cccc7c6CN(C6CCC(=O)NC6=O)C7=O)CC5)CC4)cc3)cc2[nH]1 (stereo partly drawn) [Example 92, 4-(4-((4-(2-(2,6-dioxopiperidin-3-yl)-1-oxoisoindolin-4-yl)piperazin-1-yl)methyl)piperidin-1-yl)-N-(2-((R)-1-methylpyrrolidin-2-yl)-1H-pyrrolo[3,2-c]pyridin-6-yl)benzamide] | B (Category B: 50% ≤ B < 75% degradation) | B (Category B: 50% ≤ B < 75% degradation) | B (Category B: 50% ≤ B < 75% degradation) |
| CN1CCC[C@@H]1c1cc2cnc(NC(=O)c3ccc(CCCC#Cc4cccc(C(=O)N[C@H]5CCC(=O)NC5=O)n4)cc3)cc2[nH]1 [Example 97, N—((S)-2,6-dioxopiperidin-3-yl)-6-(5-(4-((2-((R)-1-methylpyrrolidin-2-yl)-1H-pyrrolo[3,2-c]pyridin-6-yl)carbamoyl)phenyl)pent-1-yn-1-yl)picolinamide] | B (Category B: 50% ≤ B < 75% degradation) | C (Category C: 25% ≤ C < 50% degradation) | B (Category B: 50% ≤ B < 75% degradation) |
| CN1CCC[C@@H]1c1cc2cnc(NC(=O)c3ccc(CCCCC#Cc4cc5c(cc4F)C(=O)N(C4CCC(=O)NC4=O)C5)cc3F)cc2[nH]1 (stereo partly drawn) [Example 114, 4-(6-(2-(2,6-dioxopiperidin-3-yl)-6-fluoro-1-oxoisoindolin-5-yl)hex-5-yn-1-yl)-2-fluoro-N-(2-((R)-1-methylpyrrolidin-2-yl)-1H-pyrrolo[3,2-c]pyridin-6-yl)benzamide] | C (Category C: 25% ≤ C < 50% degradation) | D (Category D: D < 25% degradation) | C (Category C: 25% ≤ C < 50% degradation) |
| COc1nc(N2CCN(CC3CCN(c4cccc5c4CN(C4CCC(=O)NC4=O)C5=O)CC3)CC2)ccc1C(=O)Nc1cc2[nH]c([C@H]3CCCN3C)cc2cn1 (stereo partly drawn) [Example 126, 6-(4-((1-(2-(2,6-dioxopiperidin-3-yl)-1-oxoisoindolin-4-yl)piperidin-4-yl)methyl)piperazin-1-yl)-2-methoxy-N-(2-((R)-1-methylpyrrolidin-2-yl)-1H-pyrrolo[3,2-c]pyridin-6-yl) nicotinamide] | C (Category C: 25% ≤ C < 50% degradation) | C (Category C: 25% ≤ C < 50% degradation) | C (Category C: 25% ≤ C < 50% degradation) |
| C[C@H]1CN(CC2CCN(c3cccc4c3CN(C3CCC(=O)NC3=O)C4=O)CC2)CCN1c1ccc(C(=O)Nc2cc3[nH]c([C@H]4CCCN4C)cc3cn2)cn1 (stereo partly drawn) [Example 127, 6-((2S)-4-((1-(2-(2,6-dioxopiperidin-3-yl)-1-oxoisoindolin-4-yl)piperidin-4-yl)methyl)-2-methylpiperazin-1-yl)-N-(2-((R)-1-methylpyrrolidin-2-yl)-1H-pyrrolo[3,2-c]pyridin-6-yl)nicotinamide] | B (Category B: 50% ≤ B < 75% degradation) | B (Category B: 50% ≤ B < 75% degradation) | B (Category B: 50% ≤ B < 75% degradation) |
